From PMC12543283, “TastepepAI: An artificial intelligence platform for taste peptide de novo design” (PLOS Computational Biology, 2025)
Ends that are not written are not given here.

Key:
[1] = tested on: human umbilical vein endothelial cells (HUVEC)
[2] = tested on: human embryonic kidney cells (HEK293T)
[3] = Electronic tongue analysis (Taste-Sensing System SA 402B); design: unit not given here; details: reference solution 30 mM KCl + 0.3 mM tartaric acid as baseline, first measurement excluded; for Umami: sensor AAE; for Umami / Bitter / Sweet: detection threshold 0, room temperature; for Umami / Bitter / Sour / Salty: four replicates; for Sour: detection threshold -13, room temperature; for Salty: detection threshold -6, room temperature; for Sweet: measured five times
Experimental: Taste characteristics were analyzed using the electronic tongue system E-tongue (Taste-Sensing System SA 402B, Intelligent Sensor Technology Co. Ltd., Japan). The system was equipped with five specific sensor probes for detecting sourness (CA0), saltiness (CT0), bitterness (C00), sweetness (GL1), and umami (AAE). Samples were tested at concentrations of 0.1 mg/mL and 1.0 mg/mL. Prior to experiments, sensors were activated by immersion in a reference solution (30 mM KCl and 0.3 mM tartaric acid) for 24 h. A 30 min self-diagnostic procedure was performed before each measurement to ensure data accuracy. The reference solution served both as a cleaning solution and standard solution for taste signal calibration. According to the manufacturer’s instructions, using the reference solution as baseline, the detection thresholds were set at −13 for sourness, −6 for saltiness, and 0 for other taste modalities. Two cleaning solutions were employed for electrode maintenance: (1) 30% ethanol solution containing 100 mM HCl for negative charge reference electrodes, and (2) 30% ethanol solution containing 100 mM KCl and 10 mM KOH for positive charge reference electrodes. All taste measurements were performed at room temperature with four replicates, except for sweetness which was measured five times. The first measurement data were excluded from analysis.

[4] = tested on: human pancreatic ductal epithelial cells (HPNE)
[5] = tested on: human bronchial epithelial cells (BEAS-2B)

Substance	Average cell viability, HUVEC [1]	Cell viability, HUVEC, Data1 [1]	Cell viability, HUVEC, Data2 [1]	Cell viability, HUVEC, Data3 [1]	Average cell viability, HEK293T [2]	Cell viability, HEK293T, Data1 [2]	Cell viability, HEK293T, Data2 [2]	Cell viability, HEK293T, Data3 [2]	Umami ([3]; peptide 0.1 mg/mL)	Umami ([3]; peptide 1 mg/mL)	Bitter ([3]; sensor C00, peptide 0.1 mg/mL)	Bitter ([3]; sensor C00, peptide 1 mg/mL)	Sour ([3]; sensor CA0, peptide 0.1 mg/mL)	Sour ([3]; sensor CA0, peptide 1 mg/mL)	Salty ([3]; sensor CT0, peptide 0.1 mg/mL)	Salty ([3]; sensor CT0, peptide 1 mg/mL)	Sweet ([3]; sensor GL1, peptide 0.1 mg/mL)	Sweet ([3]; sensor GL1, peptide 1 mg/mL)	Average cell viability, HPNE [4]	Cell viability, HPNE, Data1 [4]	also measured
VAEDLL [TaPep8]	103.81	109.13	93.96	108.33	101.07	102.68	95.30	105.24	2.66	-4.08	7.50	1.63	-5.63	8.25	-22.00	7.96	9.31	-4.65	106.12	109.62	Cell viability, HPNE, Data2 [4]: 99.23; Cell viability, HPNE, Data3 [4]: 109.52; Average cell viability, BEAS-2B [5]: 103.39; Cell viability, BEAS-2B, Data1 [5]: 114.76; Cell viability, BEAS-2B, Data2 [5]: 90.53; Cell viability, BEAS-2B, Data3 [5]: 104.89
AEDNSL [TaPep43]	103.73	104.42	115.43	91.33	98.86	96.72	102.11	97.76	1.07	-5.11	7.83	4.00	-1.87	12.46	-20.35	7.60	5.59	-3.45	110.25	117.40	Cell viability, HPNE, Data2 [4]: 99.83; Cell viability, HPNE, Data3 [4]: 113.51; Average cell viability, BEAS-2B [5]: 108.94; Cell viability, BEAS-2B, Data1 [5]: 119.14; Cell viability, BEAS-2B, Data2 [5]: 93.72; Cell viability, BEAS-2B, Data3 [5]: 113.96
AGDAW [TaPep30]	102.13	114.08	97.39	94.92	110.47	112.62	114.23	104.57	1.69	-4.59	7.53	3.18	-3.43	12.02	-20.28	11.18	5.66	-6.46	103.96	100.43	Cell viability, HPNE, Data2 [4]: 106.72; Cell viability, HPNE, Data3 [4]: 104.73; Average cell viability, BEAS-2B [5]: 116.78; Cell viability, BEAS-2B, Data1 [5]: 115.45; Cell viability, BEAS-2B, Data2 [5]: 115.55; Cell viability, BEAS-2B, Data3 [5]: 119.34
LGDDLVK [TaPep19]	102.69	92.52	103.78	111.76	106.88	110.63	106.37	103.63	2.00	-4.34	7.19	3.19	-4.23	10.91	-21.50	8.70	6.20	-4.08	100.07	102.93	Cell viability, HPNE, Data2 [4]: 114.51; Cell viability, HPNE, Data3 [4]: 82.76; Average cell viability, BEAS-2B [5]: 111.70; Cell viability, BEAS-2B, Data1 [5]: 111.27; Cell viability, BEAS-2B, Data2 [5]: 110.77; Cell viability, BEAS-2B, Data3 [5]: 113.06
SLEYEFK [TaPep38]	107.74	112.64	110.32	100.27	98.90	94.16	101.26	101.26	2.66	-3.92	7.67	3.12	-5.92	9.17	-19.89	10.85	7.68	-5.11	96.57	86.36	Cell viability, HPNE, Data2 [4]: 94.14; Cell viability, HPNE, Data3 [4]: 109.22; Average cell viability, BEAS-2B [5]: 103.09; Cell viability, BEAS-2B, Data1 [5]: 93.12; Cell viability, BEAS-2B, Data2 [5]: 112.36; Cell viability, BEAS-2B, Data3 [5]: 103.79
LNDVE [TaPep66]	96.70	88.85	100.59	100.67	101.96	96.81	102.97	106.09	1.83	-3.37	7.14	4.03	-3.77	8.49	-21.50	4.47	6.93	-3.10	110.62	96.14	Cell viability, HPNE, Data2 [4]: 118.00; Cell viability, HPNE, Data3 [4]: 117.70; Average cell viability, BEAS-2B [5]: 98.04; Cell viability, BEAS-2B, Data1 [5]: 103.39; Cell viability, BEAS-2B, Data2 [5]: 89.73; Cell viability, BEAS-2B, Data3 [5]: 101.00
LGGDL [TaPep58]	99.81	89.41	103.78	106.25	101.42	99.84	107.22	97.19	2.07	-4.23	7.49	3.43	-4.24	10.37	-21.68	10.46	7.50	-6.69	94.58	94.94	Cell viability, HPNE, Data2 [4]: 87.85; Cell viability, HPNE, Data3 [4]: 100.93; Average cell viability, BEAS-2B [5]: 99.93; Cell viability, BEAS-2B, Data1 [5]: 103.89; Cell viability, BEAS-2B, Data2 [5]: 90.43; Cell viability, BEAS-2B, Data3 [5]: 105.48
EEVPITD [TaPep46]	101.12	105.61	97.55	100.19	100.85	99.94	100.60	102.02	1.60	-4.41	7.55	4.18	-3.21	10.78	-21.33	4.55	6.32	-3.59	104.39	107.62	Cell viability, HPNE, Data2 [4]: 107.82; Cell viability, HPNE, Data3 [4]: 97.74; Average cell viability, BEAS-2B [5]: 111.37; Cell viability, BEAS-2B, Data1 [5]: 117.25; Cell viability, BEAS-2B, Data2 [5]: 103.29; Cell viability, BEAS-2B, Data3 [5]: 113.56
